The values below come from US20260043057A1, “ENZYMATIC SYNTHESIS OF MYCOSPORINE-LIKE AMINO ACIDS” (University of Florida Research Foundation, Incorporated, priority 2022, published 2026).

Data set [1] in a line: Maximal UV absorbance of MAAs by HPLC with PDA detector. The format is physicochemical. The following applies: compound produced in engineered E. coli, methanolic extract of cell pellets. The procedure:
HPLC and LC-MS Analysis. Samples were analyzed on a Shimadzu Prominence UHPLC system (Kyoto, Japan) coupled with a PDA detector. The compounds were separated on a Phenomenex Luna C8 column (4.6×250 mm, 5 μm) using the following HPLC program: 2% B for 15 min, 2-90% B gradient in 2 min, 90% B for 2 min, 90-2% in 2 min, and re-equilibration in 2% B for 6 min. The A phase was 0.1 M triethylammonium acetate pH 7.0 and the B phase was methanol. The flow rate was set at 0.5 mL/min. In the quantitative analysis of relative activity of MysD with different amino acid substrates, water containing 0.1% formic acid was used as phase A to fully separate MG with MG-Ala. LC-HRMS and HRMS/MS experiments were conducted on Thermo Scientific™ Q Exactive Focus mass spectrometer with Dionex™ Ultimate™ RSLC 3000 uHPLC system, equipped with H-ESI II probe on Ion Max API Source. Methanol (B)/Water (A) containing 0.1% formic acid were used as mobile phases, and the same LC program was used as in the HPLC analysis. The eluents from the first 3 min were diverted to waste by a diverting valve. MS1 signals were acquired under the Full MS positive ion mode covering a mass range of m/z 150-2000, with resolution at 35,000 and AGC target at 1e6. Fragmentation was obtained with the Parallel Reaction Monitoring (PRM) mode using an inclusion list of calculated parental ions. The AGC target was set at 5e4 for MS2. Precursor ions were selected in the quadrapole typically with an isolation width of 3.0 m/z and fragmented in the HCD cell at a collision energy (CE) of 30. For some ions, the isolation width was 2.0 m/z and step-wise CE of 15, 20, and 25 were used.
HPLC and LC-HRMS analysis. Samples were analyzed on a Shimadzu Prominence UHPLC system (Kyoto, Japan) coupled with a PDA detector. Unless stated elsewhere, the following HPLC procedure was performed. The compounds were separated on a Phenomenex Luna C8 column (4.6×250 mm, 5 μm) using the following HPLC program: 2% B for 15 min, 2-90% B gradient in 2 min, 90% B in 2 min, 90-2% in 2 min, and re-equilibration in 2% B for 6 min. The A phase was water with 0.1 M triethylamine acetate (TEAA) at pH 7 and the B phase was methanol. The flow rate was set at 0.5 mL/min. LC-HRMS and HRMS/MS experiments were conducted on a Thermo Scientific Q Exactive Focus mass spectrometer with a Dionex Ultimate RSLC 3000 uHPLC system, equipped with the H-ESI II probe on an Ion Max API Source. Methanol (B)/water (A) containing 0.1% formic acid were used as mobile phases. The eluents from the first 3 min were diverted to waste by a diverting valve. MS1 signals were acquired under the Full MS positive ion mode, covering a mass range of m/z 150-2000, with resolution at 35 000 and AGC target at 1×10^6.

The test system of another data set is MysH. In words: MysH reaction steady-state kinetics with porphyra-334. The format is biochemical, Nostoc linckia NIES-25. The following applies: 20 to 1000 uM porphyra-334, 0.5 uM MysH, room temperature, 30 min, pH 7.5. The procedure: To further characterize the catalytic properties of MysH, the recombinant MysH of Nostoc linckia NIES-25 was prepared with a C-terminal His6-tag in E. coli after a single Ni-NTA affinity purification (FIG. 33A). The MysH reaction contained 50 mM Tris-Cl at pH 7.5, 0.5 uM MysH, 50 uM porphyra-334, 1 mM 2-oxoglutarate (2OG), 1 mM Fe(NH4)2(SO4)2, 10 mM ascorbate, and the reaction was performed at room temperature overnight. MysH successfully converted porphyra-334 into palythine-Thr in the HPLC analysis, while the complete conversion was not achieved with a higher enzyme concentration or a longer reaction time. […] To improve the reaction conversion, different concentrations of 2OG, Fe(NH4)2(SO4)2, ascorbate, and shaking speed were tested, but no significant improvement was observed. On the other hand, the inclusion of catalase led to the full conversion of porphyra-334 by MysH (FIG. 33B). The Fe(III)-O—O· species is likely one key intermediate in the MysH reaction. Hydrogen peroxide may be released via […] of Fe(III)-O—O· and inhibit the enzyme reaction.
The optimal MysH reaction conditions were determined to be 50 mM HEPES, pH 7.5, 0.5 uM MysH, 1 mM α-KG, 1 mM ascorbate, 10 uM Fe(NH4)2(SO4)2, and 8 μg/mL catalase. Steady-state kinetic studies were performed with 20 to 1000 uM porphyra-334, and the reactions were carried out at room temperature for 30 min. The reactions followed Michaelis-Menten kinetics (FIG. 34).

The subject of a further data set is MysD. In words: MysD reaction with MG and amino acid substrates (substrate preference). As to conditions: for consumption level of MG in the MysD reaction relative to that with L-Thr (set as 100%): L-Thr and L-Ser 8 min, other amino acids 30 min, from produced disubstituted MAAs; for consumption of MG in the MysD reaction: optimal conditions, after 3 h. It counts as biochemical, Nostoc linkia NIES-25. The protocol:
The current and previous heterologous expression studies supported the function of MysD in the biosynthesis of disubstituted MAAs (FIG. 3).^29,35 To further characterize its catalytic properties, recombinant His6-tagged MysD of N. linkia NIES-25 was prepared from E. coli after a single affinity purification (FIG. 21). The enzyme reaction was performed with MysD (0.5 μM), MG (50 μM), and L-Thr (1 mM) in the presence of ATP (1 mM) and Mg^2+ (10 mM) at room temperature for 2 h. […] No product was formed in the control reactions without enzyme or ATP (FIG. 5A). The requirement of ATP for the MysD reaction supports its prediction as the D-Ala-D-Ala ligase-like enzyme of the ATP grasp superfamily.^29 The optimal temperature and pH of its reaction were determined at 37° C. and pH=8.5 (FIG. 22). Under these optimal reaction conditions, all 20 natural amino acids were screened (5 mM) along with MG (50 μM) in the MysD reaction. […] LC-HRMS and MS/MS analysis indicated the formation of their corresponding disubstituted MAAs, MG-Ala, MG-Arg (observed [M+H]^+: 402.1977; calculated [M+H]^+: 402.1983), MG-Cys (observed [M+H]^+: 349.1059; calculated [M+H]^+: 349.1064), mycosporine-2-Gly (observed [M+H]^+: 303.1182; calculated [M+H]^+: 303.1187), shinorine, and porphyra-334 (FIGS. 24, 25, and 26). […] Nonetheless, the result of this biochemical study well agreed with the production of porphyra-334 along with small amounts of shinorine and MG-Ala in the above heterologous expression study (FIG. 3C). To further understand MysD's substrate preference, the enzyme concentration was lowered to 0.25 μM. […] The consumed MG level in this reaction was set as 100% to normalize its level in the five other reactions, which was determined from the concentrations of produced disubstituted MAAs in the reactions (FIG. 5C). […] Together, the results of these biochemical studies highlight the broad substrate scope of MysD and its strong preference toward L-Thr in the MAA biosynthesis.
MysD Reaction. MG was purified from extracts of E. coli expressing MysAB2C by HPLC and used as the substrate for the MysD reactions. The quality of MG was calculated based on its reported extinction coefficient (28,100 M^−1cm^−1). The initial MysD reactions included MG (50 μM), L-Thr (1 mM), Mg^2+ (10 mM), and ATP (1 mM) in 100 mM Tris-Cl, pH 7.5. The reactions were initiated by adding MysD (0.5 μM) and then incubated at room temperature for 2 h. The control reactions omitted MysD or ATP. All reactions were quenched by heat inactivation at 95° C. for 10 min. After centrifugation at 20,000×g for 15 min, the clear supernatants were collected for HPLC and LC-HRMS analysis. To determine the optimal reaction conditions, the MysD reaction was performed in 100 mM buffer with a pH of 6.5 to 11 at 16 to 60° C. for 6 min. To explore the substrate scope of MysD, all 20 natural amino acids (5 mM) were screened in the above reaction mixtures under the optimal conditions for 3 h. The reactions were terminated and then analyzed in the HPLC and/or LC-MS analysis. To determine the relative activity of six identified amino acids as MysD's substrates, a two-step strategy was used. First, the reactions were performed with 0.25 μM MysD for 8 min, which led to no more than 50% consumption of MG into porphyra-334 with the best substrate L-Thr and into shinorine with L-Ser. For the other four amino acids, the levels of their corresponding disubstituted MAAs were determined after the reaction time was elongated to 30 min. All reactions were performed in at least two independent replicates.

For data set [2] the following is noted: reported value used to quantify MG; cited from earlier work.

In the case of `COC1=C(NCC(=O)O)CC(O)(CO)C/C1=N\C(C)C(=O)O` (centres unmarked) [MG-Ala, mycosporine-glycine-alanine], the maximal absorbance result in data set [1] is “around 334 nm”.

mycosporine-amine [M-NH2] gave a maximal absorbance in data set [1] of 298 nm.

One may read the Km as the concentration of substrate that gives half-maximal velocity. One may read the Vmax as the rate approached at saturating substrate. One may read the kcat as the number of substrate molecules converted per active site and unit of time at saturation. With `COC1=C(NCC(=O)O)C[C@@](O)(CO)CC1=N[C@H](C(=O)O)[C@@H](C)O` [porphyra-334], the maximal absorbance result in data set [1] is listed as “around 334 nm”. Further, in the data set on MysH, the Km came to 385 µM, the Vmax came out at 0.62 µM/min and the kcat was 0.0207 s⁻¹. On to `COC1=C(N)CC(O)(CO)CC1=NC(CO)C(=O)O` (centres unmarked) [Palythine-Ser, palythine-Ser], for which the maximal absorbance in data set [1] is recorded as 320 nm. Consider `N[C@@H](CO)C(=O)O` [L-Ser], for which the “consumption level of MG in the MysD reaction relative to that with L-Thr (set as 100%)” value with MysD (0.25 μM MysD) is “about 12.7%”. Also, the “consumption of MG in the MysD reaction” value with MysD (5 mM amino acid, 50 μM MG) is “complete consumption of MG”.

For the compound `N[C@@H](CS)C(=O)O` [L-Cys], the “consumption level of MG in the MysD reaction relative to that with L-Thr (set as 100%)” value in the data set with MysD (0.25 μM MysD) was 0.9%. The same measure, in the same setting: under `C[C@H](N)C(=O)O` [L-Ala] stands 0.4%. `COC1=C(O)CC(O)(CO)CC1=O` (centres unmarked) [4-DG, 4-deoxygadusol] had a maximal absorbance in data set [1] of 294 nm. Compound `COC1=C(N)C[C@@](O)(CO)C/C1=N\[C@H](C(=O)O)C(C)O` (some centres unmarked) [palythine-Thr] displayed a maximal absorbance in data set [1] of 320 nm. For `COC1=C(NCC(=O)O)C[C@@](O)(CO)CC1=O` [MG, mycosporine-glycine], the maximal absorbance in data set [1] is reported as 310 nm. Also, the extinction coefficient in data set [2] is reported as 28,100 M^−1cm^−1. On to `C[C@@H](O)[C@H](N)C(=O)O` [L-Thr], for which, in the data set with MysD (0.25 μM MysD, 50 μM MG, 5 mM amino acid, 8 min, optimal conditions (37° C., pH 8.5)), the “MG converted into porphyra-334” value is “about 40%”. In the data set on MysD (5 mM amino acid, 50 μM MG), the “consumption of MG in the MysD reaction” value was “complete consumption of MG”.
